According to US20170143661A1 (priority 2015, published 2017):

Key:
Parameters in all cases: species or system broiler birds
Conditions in all cases: in vivo
Interferon-γ (IFN-γ) = tested on: Interferon-γ (IFN-γ)
Interleukin-6 (IL-6) = tested on: Interleukin-6 (IL-6)
[1] = tested on: Newcastle disease virus, NDV
[2] = tested on: Newcastle disease virus, NDV; remark: listed apart in the source
[3] = tested on: Newcastle disease virus, NDV; remark: listed apart in the source
[4] = tested on: Newcastle disease virus, NDV; remark: listed apart in the source

With CCC(=O)[O-].CCC(=O)[O-].CCC(=O)[O-].[Cr+3] [chromium propionate] as the compound, how does the “serum Interferon-γ (IFN-γ) levels” value (Interferon-γ (IFN-γ)) read?
Its value is “Significantly higher”.

And the “post-challenge responses (serum cytokine)” value (Interleukin-6 (IL-6))?
Its value is “increasing trend”.

What about the “serum Interleukin-6 (IL-6) levels” value (Interleukin-6 (IL-6)) of the same compound?
Its value is “Significantly higher”.

And the “serum antibody titers (HI)” value [1]?
Its value is “enhanced significantly”.

And the “serum antibody titers (ELISA)” value [2]?
The value was “enhanced significantly”.

What about the daily mortality percentages [3] of the same compound?
Its daily mortality percentages is “lower”.

And the “mortality by day 15 post-challenge” value [3]?
The value was 100%.

What about the onset of mortality [3] of the same compound?
Its onset of mortality is “delayed”.

What about the “mean viral titer in different organs” value [4] of the same compound?
Its value is “lower as compared to the control”.
